Assay [1] has as its system THP-1. Briefly: Concentration required to inhibit production of PGE-2 from THP-1 cells stimulated with A-23187. Type of assay: functional, cell-based. The conditions noted are these: Homo sapiens.
The species named for assay [2] is Homo sapiens. Briefly: Concentration required to inhibit production of arachidonic acid from whole blood stimulated with A-23187. It is filed as functional, organism-based.
The test system of assay [3] is THP-1. Briefly: Concentration required to inhibit production of LTC4 from THP-1 cells stimulated with A-23187. Type of assay: functional, cell-based. The conditions noted are these: Homo sapiens.
The species entered for assay [4] is Homo sapiens. Briefly: Concentration required to inhibit production of LTB4 from whole blood stimulated with A-23187. Type of assay: functional, organism-based.
For assay [5], the species on record is Homo sapiens. Briefly: Concentration required to inhibit production of PGE-2 from whole blood stimulated with A-23187. It is filed as functional, organism-based.
For assay [6], the system named is THP-1. Briefly: Concentration required to inhibit production of arachidonic acid from THP-1 cells stimulated with A-23187. Type of assay: functional, cell-based. The conditions noted are these: Homo sapiens.
The species entered for assay [7] is Homo sapiens. Briefly: Concentration required to inhibit production of TXB2 from whole blood stimulated with A-23187. It is filed as functional, organism-based.
Assay [8] is filed under the species Homo sapiens. Briefly: Concentration required to inhibit production of LDH from whole blood stimulated with A-23187. It is filed as functional, organism-based.

A value given as a limit tells only on which side of the number the result lay.

We go through three compounds from ChEMBL document CHEMBL1134826, “Pyrrolidine inhibitors of human cytosolic phospholipase A2. Part 2: synthesis of potent and crystallized 4-triphenylmethylthio derivative 'pyrrophenone'” (Bioorg Med Chem Lett, 2001).

The IC50 is the concentration that inhibits the measured activity by half. For `CCCCC/C=C\C/C=C\C/C=C\C/C=C\CCCC(=O)O` [ARACHIDONIC ACID], the IC50 was 0.18 µM in assay [1]; above 10 µM in assay [2]; 0.0047 µM in assay [3]; 0.94 µM in assay [4]; above 10 µM in assay [5]; 40 µM in assay [6]. The IC50 in assay [7] and in assay [8] was above 10 µM throughout.
In the case of `CCCCC/C=C\C/C=C\C/C=C\C/C=C\CCCC(=O)C(F)(F)F` [ARACHIDONYL TRIFLUOROMETHYLKETONE], the IC50 in assay [2] is above 10 µM; in assay [3], 41 µM; in assay [4] it was above 10 µM; in assay [5], above 10 µM; in assay [6], 86 µM; in assay [7] it was above 10 µM. In addition, the IC50 in assay [8] is above 10 µM.
With `COc1ccc2c(c1)c(CC(=O)O)c(C)n2C(=O)c1ccc(Cl)cc1` [INDOMETHACIN], the IC50 in assay [2] is above 10 µM; in assay [3] it was above 10 µM; in assay [4], above 10 µM; in assay [5] it was 0.26 µM; in assay [6] it was above 10 µM; in assay [7], 0.36 µM. The IC50 in assay [8] is above 10 µM.
